Experimental findings from patent US20100222319A1, “NICOTINAMIDE DERIVATIVES, PREPARATION THEREOF AND THERAPEUTIC USE THEREOF” (SANOFI-AVENTIS, priority 2007, published 2010) are described below.

For one series, the system named is HCT116 (ATCC-CCL247). Nature of the series: MTS cell proliferation and viability test on HCT116 tumour line. Type of series: cell-based. The settings on record: Homo sapiens, HCT-116, incubating the test compound for 72 hours, read-out: IC50 HCT116 (concentration which results in 50% loss of cell proliferation and viability). As to the method:
(§1) The compounds described in Table I have formed the subject of pharmacological trials which make it possible to determine the anticancer activity. They were tested in vitro on the following tumour lines: HCT116 (ATCC-CCL247) and PC3 (ATCC-CRL1435). The cell proliferation and viability were determined in a test using 3-(4,5-dimethylthiazol-2-yl)-5-(3-carboxymethoxyphenyl)-2-(4-sulphophenyl)-2H-tetrazolium (MTS) according to Fujishita T. et al., Oncology, 2003, 64(4), 399-406. In this test, the mitochondrial capacity of the living cells to convert MTS to a coloured compound after incubating the test compound for 72 hours is measured. The concentration of compound which results in 50% loss of cell proliferation and viability is recorded as IC50.

A further series relates to PC3 (ATCC-CRL1435). Briefly: MTS cell proliferation and viability test on PC3 tumour line. The settings on record: incubating the test compound for 72 hours, read-out: IC50 PC3 (concentration which results in 50% loss of cell proliferation and viability). Type of series: cell-based. The method, then: as §1

pIC50: −log10 of the molar value.

As for `CCNc1nc(-c2ccc(NC(=O)NCc3ccc(N)nc3)cc2)ccc1C(=O)NCCN1C[C@@H](C)O[C@@H](C)C1` [Compound 114, 6-{-4-[3-(6-Amino-pyridin-3-ylmethyl)-ureido]-phenyl}-N-[2-(cis-2,6-dimethyl-morpholin-4-yl)-ethyl]-2-ethylamino-nicotinamide], the pIC50 in the series on HCT116 (ATCC-CCL247) and in the series with PC3 (ATCC-CRL1435) was 10.00 throughout.
The compound `CCNc1nc(-c2ccc(NC(=O)NCc3cccnc3)cc2)ccc1C(=O)NCCN1CCCCC1` [Compound 13, 2-Ethylamino-N-(2-piperidin-1-yl-ethyl)-6-[4-(3-pyridin-3-ylmethyl-ureido)-phenyl]-nicotinamide] displayed a melting point of 164 to 165 °C. Also, the pIC50 in the series on HCT116 (ATCC-CCL247) was 10.00. Further, in the series on PC3 (ATCC-CRL1435), the pIC50 was 9.70.
With `CCNc1nc(-c2ccc(NC(=O)NCc3cccnc3)cc2)ncc1C(=O)NC` [Compound 47, 4-Ethylamino-2-[4-(3-pyridin-3-ylmethyl-ureido)-phenyl]-pyrimidine-5-carboxylic acid methylamide], the pIC50 with HCT116 (ATCC-CCL247) was 7.96; in the series with PC3 (ATCC-CRL1435), 8.00.
As to `CCNc1nc(-c2ccc(NC(=O)/C=C/c3cccnc3)cc2)ccc1C(=O)NCCN(C(C)C)C(C)C` [Compound 74, N-(2-Diisopropylamino-ethyl)-2-ethylamino-6-[4-((E)-3-pyridin-3-yl-acryloylamino)-phenyl]-nicotinamide], the pIC50 is 6.94 in the series with HCT116 (ATCC-CCL247) and 7.68 in the series with PC3 (ATCC-CRL1435).
Take `CNC(=O)c1ccc(-c2ccc(NC(=O)NCc3cccnc3)cc2)nc1NCc1ccncc1` [Compound 15, N-Methyl-2-[(pyridin-4-ylmethyl)-amino]-6-[4-(3-pyridin-3-ylmethyl-ureido)-phenyl]-nicotinamide]: the melting point lay in the range of 218 to 219 °C.
For `CCNc1cc(-c2ccc(NC(=O)NCc3cccnc3)cc2)ncc1C(=O)NC` [Compound 55, 4-Ethylamino-N-methyl-6-[4-(3-pyridin-3-ylmethyl-ureido)-phenyl]-nicotinamide], the figures for the pIC50 in the series on HCT116 (ATCC-CCL247) and in the series on PC3 (ATCC-CRL1435) were 7.46 and 7.35, respectively.
For `CCNc1nc(-c2ccc(NC(=O)NCc3cccnc3)cc2)ccc1C(=O)NCCO` [Compound 26, 2-Ethylamino-N-(2-hydroxy-ethyl)-6-[4-(3-pyridin-3-ylmethyl-ureido)-phenyl]-nicotinamide], in that order: 8.20 and 8.36.
For `CNC(=O)c1ccc(-c2ccc(NC(=O)NCc3cccnc3)cc2)nc1NCc1ccccc1` [Compound 19, 2-Benzylamino-N-methyl-6-[4-(3-pyridin-3-ylmethyl-ureido)-phenyl]-nicotinamide], in that order: 7.47 and 7.55.
With `CNC(=O)c1ccc(-c2ccc(NC(=O)NCc3cccnc3)cc2)nc1N1CCCC1` [Compound 49, N-Methyl-6-[4-(3-pyridin-3-ylmethyl-ureido)-phenyl]-2-pyrrolidin-1-yl-nicotinamide], the pIC50 in the series on HCT116 (ATCC-CCL247) was 6.48; with PC3 (ATCC-CRL1435) it was 6.50.
For `CCNc1nc(-c2ccc(NC(=O)NCc3cccnc3)cc2)ccc1C(=O)NCCN(C(C)C)C(C)C` [Compound 8, N-(2-Diisopropylamino-ethyl)-2-ethylamino-6-[4-(3-pyridin-3-ylmethyl-ureido)-phenyl]-nicotinamide], the melting point was 160 to 162 °C.
In turn, `CNC(=O)c1ccc(-c2ccc(NC(=O)NCc3cccnc3)cc2)nc1N` [Compound 3, 2-Amino-N-methyl-6-[4-(3-pyridin-3-ylmethyl-ureido)-phenyl]-nicotinamide] showed a melting point of 234 to 236 °C.
Consider `CCNc1nc(-c2ccc(NC(=O)NCc3cccnc3)cc2)ccc1C(=O)NC` [Compound 1, 2-Ethylamino-N-methyl-6-[4-(3-pyridin-3-ylmethyl-ureido)-phenyl]-nicotinamide], for which the melting point was in the range of 260 to 263 °C.
For the compound `O=C(NCc1cccnc1)Nc1ccc(-c2ccc(C(=O)NCCN3CCCC3)c(Nc3ccccc3)n2)cc1` [Compound 33, 2-Phenylamino-6-[4-(3-pyridin-3-ylmethyl-ureido)-phenyl]-N-(2-pyrrolidin-1-yl-ethyl)-nicotinamide], the pIC50 was 9.43 with HCT116 (ATCC-CCL247) and 9.52 in the series on PC3 (ATCC-CRL1435).
For the compound `CCNc1nc(-c2ccc(NC(=O)NCc3ccc(NC(C)C)nc3)cc2)ccc1C(=O)NCCN1CCCCC1` [Compound 108, 2-Ethylamino-6-{-4-[3-(6-isopropylamino-pyridin-3-ylmethyl)-ureido]-phenyl}-N-(2-piperidin-1-yl-ethyl)-nicotinamide], the pIC50 is 6.57 in the series on HCT116 (ATCC-CCL247) and 6.46 in the series with PC3 (ATCC-CRL1435).
Regarding `CCNc1nc(-c2ccc(NC(=O)NCc3cccnc3)cc2)ccc1C(=O)NCCN1CCNCC1` [Compound 5, 2-Ethylamino-N-(2-piperazin-1-yl-ethyl)-6-[4-(3-pyridin-3-ylmethyl-ureido)-phenyl]-nicotinamide], the pIC50 is 8.74 in the series on HCT116 (ATCC-CCL247) and 9.10 in the series with PC3 (ATCC-CRL1435).
Compound `CCNc1nc(-c2ccc(NC(=O)NCc3ccc(N)nc3)cc2)ccc1C(=O)NC` [Compound 21, 6-{-4-[3-(6-Amino-pyridin-3-ylmethyl)-ureido]-phenyl}-2-ethylamino-N-methyl-nicotinamide] came in with a melting point of 223 to 226 °C.
`CCNc1nc(-c2ccc(NC(=O)OCc3cccnc3)cc2)ccc1C(=O)NC` [Compound 29, [4-(6-Ethylamino-5-methylcarbamoyl-pyridin-2-yl)-phenyl]-carbamic acid pyridin-3-ylmethyl ester] displayed a melting point of 234 to 235 °C.
With `CCNc1cc(-c2ccc(NC(=O)NCc3cccnc3)cc2)ccc1C(=O)NC` [Compound 62, 3-Ethylamino-4′-(3-pyridin-3-ylmethyl-ureido)-biphenyl-4-carboxylic acid methylamide], the pIC50 was 8.60 in the series on HCT116 (ATCC-CCL247) and 8.92 in the series with PC3 (ATCC-CRL1435).
For `CNC(=O)c1ccc(-c2ccc(NC(=O)NCc3cccnc3)cc2)nc1NCCN1CCCCC1` [Compound 17, N-Methyl-2-(2-piperidin-1-yl-ethylamino)-6-[4-(3-pyridin-3-ylmethyl-ureido)-phenyl]-nicotinamide], the values for the pIC50 in the series with HCT116 (ATCC-CCL247) and in the series with PC3 (ATCC-CRL1435) were 6.53 and 6.58, respectively.
In the same order, the values of `CNC(=O)c1ccc(-c2ccc(NC(=O)NCc3cccnc3)cc2)nc1NCc1cccnc1` [Compound 12, N-Methyl-2-[(pyridin-3-ylmethyl)-amino]-6-[4-(3-pyridin-3-ylmethyl-ureido)-phenyl]-nicotinamide] are 7.72 and 6.95.
For the compound `CCNc1nc(-c2ccc(NC(=O)NCc3ccc(NC(=O)C(C)C)nc3)cc2)ccc1C(=O)NCCN1CCCCC1` [Compound 107, 2-Ethylamino-6-{4-[3-(6-isobutyrylamino-pyridin-3-ylmethyl)-ureido]-phenyl}-N-(2-piperidin-1-yl-ethyl)-nicotinamide], the pIC50 is 6.66 with HCT116 (ATCC-CCL247) and 6.98 in the series with PC3 (ATCC-CRL1435).
In the case of `CCNc1nc(-c2ccc(NC(=O)NCc3ccc(N)nc3)cc2)ccc1C(=O)NCCN1CCCCC1` [Compound 81, 6-{-4-[3-(6-Amino-pyridin-3-ylmethyl)-ureido]-phenyl}-2-ethylamino-N-(2-piperidin-1-yl-ethyl)-nicotinamide], the pIC50 in the series with HCT116 (ATCC-CCL247) and in the series on PC3 (ATCC-CRL1435) was 10.00 throughout.
Take `CNC(=O)c1ccc(-c2ccc(NC(=O)NCc3cccnc3)cc2)nc1NC1CC1` [Compound 23, 2-Cyclopropylamino-N-methyl-6-[4-(3-pyridin-3-ylmethyl-ureido)-phenyl]-nicotinamide]: the pIC50 in the series with HCT116 (ATCC-CCL247) and with PC3 (ATCC-CRL1435) was 10.00 in each case.
In the case of `CNC(=O)c1ccc(-c2ccc(NC(=O)NCc3cccnc3)cc2)nc1Nc1ccccc1` [Compound 22, N-Methyl-2-phenylamino-6-[4-(3-pyridin-3-ylmethyl-ureido)-phenyl]-nicotinamide], the melting point lay within 234 to 236 °C. Besides, in the series with HCT116 (ATCC-CCL247), the pIC50 is 10.00. For the same compound, the pIC50 with PC3 (ATCC-CRL1435) is 10.00.
On to `CCNc1nc(-c2ccc(NC(=O)NCc3ccc(N)nc3)cc2)ccc1C(=O)NCCN1CC[S+]([O-])CC1` [Compound 103, 6-{-4-[3-(6-Amino-pyridin-3-ylmethyl)-ureido]-phenyl}-2-ethylamino-N-[2-(1-oxo-1-thiomorpholin-4-yl)-ethyl]-nicotinamide], for which the pIC50 in the series on HCT116 (ATCC-CCL247) is 8.74; in the series with PC3 (ATCC-CRL1435), 8.52.
Take `CCN(CC)c1nc(-c2ccc(NC(=O)NCc3cccnc3)cc2)ccc1C(=O)NC` [Compound 25, 2-Diethylamino-N-methyl-6-[4-(3-pyridin-3-ylmethyl-ureido)-phenyl]-nicotinamide]: the figures for the pIC50 in the series with HCT116 (ATCC-CCL247) and in the series on PC3 (ATCC-CRL1435) were 8.66 and 8.77, respectively.
`CNC(=O)c1ccc(-c2ccc(NC(=O)NCc3cccnc3)cc2)nc1NCCOC` [Compound 51, 2-(2-Methoxy-ethylamino)-N-methyl-6-[4-(3-pyridin-3-ylmethyl-ureido)-phenyl]-nicotinamide]: the pIC50 in the series with HCT116 (ATCC-CCL247) and with PC3 (ATCC-CRL1435) was 7.11 in each case.
